The text below walks through data of US20160052955A1 (SLOAN-KETTERING INSTITUTE FOR CANCER RESEARCH, priority 2013, published 2016).

This assay deals with SETDB1Full-length (Homo sapiens, UniProt Q15047). Nature of the assay: Filter-paper methyltransferase assay, SETDB1. The assay is classed as biochemical.

Structures are written as SMILES.

One may read the IC50 as the concentration at which inhibition is half-maximal. A high value points to a need for much substance. In turn, `Nc1ncnc2c1ncn2[C@@H]1O[C@H](C[C@@H](N)CC[C@H](N)C(=O)O)[C@@H](O)[C@H]1O` [Sinefungin, sinefungin, reference compound] displayed an IC50 of 8 µM.
